In paper PMC11024163, “MmcA is an electron conduit that facilitates both intracellular and extracellular electron transport in Methanosarcina acetivorans” (Nature Communications, 2024):

Target: T1, MmcA (Methanosarcina acetivorans, UniProt Q8TSY5)
T1 construct: gene MA_0658; mature holo-protein of 476 aa (signal peptide removed), C-terminal 3xFLAG and twin-Strep tags kept; homologous expression in M. acetivorans, anti-Flag purified from Triton X-100 solubilised membranes; seven covalent hemes c
T1 sequence (Q8TSY5 25-500): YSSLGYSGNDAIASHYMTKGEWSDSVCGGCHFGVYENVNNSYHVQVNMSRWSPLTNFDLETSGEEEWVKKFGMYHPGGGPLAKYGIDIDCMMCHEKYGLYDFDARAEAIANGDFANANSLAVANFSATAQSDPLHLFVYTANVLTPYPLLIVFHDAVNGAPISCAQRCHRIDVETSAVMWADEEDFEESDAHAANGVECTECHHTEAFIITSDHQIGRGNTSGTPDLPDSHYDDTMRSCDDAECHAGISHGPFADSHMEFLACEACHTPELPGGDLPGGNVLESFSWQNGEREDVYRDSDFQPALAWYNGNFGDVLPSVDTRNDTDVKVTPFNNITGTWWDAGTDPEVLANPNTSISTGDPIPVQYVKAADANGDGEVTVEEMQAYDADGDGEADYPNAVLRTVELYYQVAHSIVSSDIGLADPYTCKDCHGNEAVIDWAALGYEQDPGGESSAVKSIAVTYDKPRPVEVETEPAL
Experiment: UV-vis spectral oxidation of dithionite-reduced MmcA
Assay type: biochemical
Conditions: 2.5–3.5 µM MmcA, 50 mM Tris-HCl, 150 mM NaCl, 2% glycerol, pH 7.4, room temperature, anaerobic

| Structure (SMILES) | UV-vis spectral oxidation of dithionite-reduced MmcA (electron acceptor, soluble methanophenazine analogue, 200 µM) | UV-vis spectral oxidation of dithionite-reduced MmcA (electron acceptor in excess) |
| --- | --- | --- |
| Oc1ccc2nc3ccccc3nc2c1 [2HP, 2-hydroxyphenazine] | The addition of 2HP instantaneously oxidized MmcA as observed by a shift in its Soret | – |
| O=C1c2ccc(S(=O)(=O)O)cc2C(=O)c2ccc(S(=O)(=O)O)cc21 [AQDS, anthraquinone-2,6-disulfonate] | – | All three electron acceptors oxidized MmcA rapidly |
